Here are results for eight compounds from patent publication US7776924B2, “Nitroaniline-based alkylating agents and their use as prodrugs” (Auckland Uniservices Limited, priority 2002, dated 2010).

pIC50: −log10 of the molar value. Marks after values point to notes of the source that are not given here.

One series deals with SKOV3. Description: Cytotoxicity in wild-type (NR−) human ovarian cell line SKOV3. The class given is cell-based.
For a further series, the system named is WC14.10. Description: Cytotoxicity in NTR-transfected (NR+) human colon cell line WC14.10. The format is cell-based. Conditions: for pIC50: WC14.10 NTR-transfected.
The subject of a further series is WIDR. Description: Cytotoxicity in wild-type (NR−) human colon cell line WIDR. The class given is cell-based.
The next series concerns SC3.2. Description: Cytotoxicity in NTR-transfected (NR+) human ovarian cell line SC3.2. The format is cell-based. The conditions noted are these: for pIC50: SC3.2 NTR-transfected, 18 h exposure; for Ratio = IC50(NR−)/IC50(NR+) Human Ovarian: SKOV3 / SC3.2, 18 h exposure.
For series [1], the system named is A549 human lung carcinoma cells. As to the kind of experiment: Cytotoxicity in oxic and anoxic wild-type A549 human lung carcinoma cells. The class given is cell-based. Conditions: 4 h exposure; for pIC50: anoxic, read-out: IC50 WT anoxic.
Series [2] concerns A549 transfected with human cytochrome P450 reductase (P450R). As to the kind of experiment: Cytotoxicity in oxic and anoxic A549 cells transfected with human cytochrome P450 reductase. The format is cell-based. The conditions noted are these: 4 h exposure; for pIC50: anoxic.
For series [3] the following is noted: Friedlos et al., J. Med. Chem. 1997, 40, 1270; cited from earlier work.

A word on the pIC50: it is −log10 of the IC50, conventionally taken in molar units. For the compound `CS(=O)(=O)OCCN(CCCl)c1ccc([N+](=O)[O-])c(C(=O)NCCCO)c1[N+](=O)[O-]` [IIc4, 2-((2-Chloroethyl)-3-{[(3-hydroxypropyl)amino]carbonyl}-2,4-dinitroanilino)ethyl methanesulfonate], the negative logarithm of the IC50 (pIC50) in the series with SKOV3 (18 h exposure) is 3.10; in the series on WC14.10 (18 h exposure), 5.59; with WIDR (18 h exposure), 3.41; in the series on SC3.2, 5.80; in series [1], 4.09; in series [2], 5.14. Moreover, in the series on WC14.10 (WIDR / WC14.10, 18 h exposure), the “Ratio = IC50(NR−)/IC50(NR+) Human colon” value is given as 215. In the series on SC3.2, the “Ratio = IC50(NR−)/IC50(NR+) Human Ovarian” value is on record as 549. Further, the “WT Ratio = IC50(aerobic)/IC50(anoxic)” value in series [1] worked out at 26. In addition, the “P450R ratio = IC50(aerobic)/IC50(anoxic)” value in series [2] was 108.

On to `CS(=O)(=O)OCCN(CCBr)c1c(C(=O)NCCO)cc([N+](=O)[O-])cc1[N+](=O)[O-]` [IIb3, 2-((2-Bromoethyl)-2-{[(2-hydroxyethyl)amino]carbonyl}-4,6-dinitroanilino)ethyl methanesulfonate], for which the negative logarithm of the IC50 (pIC50) with SKOV3 (18 h exposure) was 5.28; in the series on WC14.10 (18 h exposure), 7.22; in the series with WIDR (18 h exposure), 5.43; in the series with SC3.2, 7.40; in series [1] it was 5.64; in series [2], 6.55. For the same compound, in the series on WC14.10 (WIDR / WC14.10, 18 h exposure), the “Ratio = IC50(NR−)/IC50(NR+) Human colon” value worked out at 66. Further, in the series on SC3.2, the “Ratio = IC50(NR−)/IC50(NR+) Human Ovarian” value was found to be 142. The “WT Ratio = IC50(aerobic)/IC50(anoxic)” value in series [1] was determined as 26. In addition, the “P450R ratio = IC50(aerobic)/IC50(anoxic)” value in series [2] worked out at 133.

For the compound `CC(O)CNC(=O)c1cc([N+](=O)[O-])cc([N+](=O)[O-])c1N(CCBr)CCOS(C)(=O)=O` (centres unmarked) [IIb5, 2-((2-Bromoethyl)-2-{[(2-hydroxypropyl)amino]carbonyl}-4,6-dinitroanilino)ethyl methanesulfonate], the pIC50 was 6.60 in the series with WC14.10 (4 h exposure), 5.54 in the series on WIDR (4 h exposure), 5.40 in series [1] and 6.47 in series [2]. For the same compound, the “Ratio = IC50(NR−)/IC50(NR+) Human colon” value with WC14.10 (WIDR / WC14.10, 4 h exposure) was 12^f. Moreover, in series [1], the “WT Ratio = IC50(aerobic)/IC50(anoxic)” value was 19. Also, the “P450R ratio = IC50(aerobic)/IC50(anoxic)” value in series [2] was found to be 150.

Consider `CS(=O)(=O)OCCN(CCBr)c1c([N+](=O)[O-])ccc(C(=O)NCCCO)c1[N+](=O)[O-]` [IIc5, 2-((2-Bromoethyl)-3-{[(3-hydroxypropyl)amino]carbonyl}-2,6-dinitroanilino)ethyl methanesulfonate], for which the negative logarithm of the IC50 (pIC50) in the series with SKOV3 (18 h exposure) was 3.55; in the series with WC14.10 (18 h exposure), 6.07; with WIDR (18 h exposure), 3.68; in the series on SC3.2, 6.24; in series [1], 4.28; in series [2], 5.35. For the same compound, the “Ratio = IC50(NR−)/IC50(NR+) Human colon” value with WC14.10 (WIDR / WC14.10, 18 h exposure) amounted to 301. Moreover, in the series with SC3.2, the “Ratio = IC50(NR−)/IC50(NR+) Human Ovarian” value is 497. Further, the “WT Ratio = IC50(aerobic)/IC50(anoxic)” value in series [1] amounted to 30. Besides, in series [2], the “P450R ratio = IC50(aerobic)/IC50(anoxic)” value turned out to be 134.

Take `CS(=O)(=O)OCCN(CCBr)c1cc(C(=O)NCCO)c([N+](=O)[O-])cc1[N+](=O)[O-]` [IIa5, 2-((2-Bromoethyl)5-{[(2-hydroxyethyl)amino]carbonyl}-2,4-dinitroanilino)ethyl methanesulfonate]: the pIC50 in the series with SKOV3 (18 h exposure) is 3.54; in the series with WC14.10 (18 h exposure), 6.11; with WIDR (18 h exposure), 3.72; with SC3.2 it was 6.21; in series [1], 3.86; in series [2], 4.14. In the series on WC14.10 (WIDR / WC14.10, 18 h exposure), the “Ratio = IC50(NR−)/IC50(NR+) Human colon” value turned out to be 250. The “Ratio = IC50(NR−)/IC50(NR+) Human Ovarian” value in the series with SC3.2 is recorded as 470. Besides, in series [1], the “WT Ratio = IC50(aerobic)/IC50(anoxic)” value came to 5.2. The “P450R ratio = IC50(aerobic)/IC50(anoxic)” value in series [2] was 9.9.

For orientation: melting point means the temperature of the solid-liquid transition. The compound `COC(=O)CCNC(=O)c1cc([N+](=O)[O-])cc([N+](=O)[O-])c1N(CCCl)CCOS(C)(=O)=O` [IIb8, Methyl 3-{[2-((2-chloroethyl){2-[(methylsulfonyl)oxy]ethyl}amino)-3,5-dinitrobenzoyl]amino}propanoate] registered a melting point of 128 to 130 °C. Besides, the negative logarithm of the IC50 (pIC50) in the series on SKOV3 (Homo sapiens, SK-OV-3, 18 h exposure) was 5.01. This compound also had a negative logarithm of the IC50 (pIC50) in the series on WC14.10 (Homo sapiens, 18 h exposure) of 6.44. In addition, in the series with WC14.10 (WIDR / WC14.10, 18 h exposure), the “Ratio = IC50(NR−)/IC50(NR+) Human colon” value was 13. Moreover, the pIC50 in the series on WIDR (Homo sapiens, 18 h exposure) is 5.37. The pIC50 with SC3.2 (Homo sapiens) was 6.72. Also, the “Ratio = IC50(NR−)/IC50(NR+) Human Ovarian” value with SC3.2 came to 51.

`CS(=O)(=O)OCCN(CCBr)c1cc(C(=O)NCCCO)c([N+](=O)[O-])cc1[N+](=O)[O-]` [IIa6, 2-((2-Bromoethyl)5-{[(3-hydroxypropyl)amino]carbonyl}-2,4-dinitroanilino)ethyl methanesulfonate]: the pIC50 in the series on WC14.10 (18 h exposure) was 5.30; with WIDR (18 h exposure), 3.34; in series [1], 3.46; in series [2] it was 4.51. In the series on WC14.10 (WIDR / WC14.10, 18 h exposure), the “Ratio = IC50(NR−)/IC50(NR+) Human colon” value is 91. Further, in series [1], the “WT Ratio = IC50(aerobic)/IC50(anoxic)” value is 2.4. The “P450R ratio = IC50(aerobic)/IC50(anoxic)” value in series [2] is listed as 18.

Consider `CS(=O)(=O)OCCN(CCCl)c1cc(C(N)=O)c([N+](=O)[O-])cc1[N+](=O)[O-]` [No 5, 2-[5-(aminocarbonyl)(2-chloroethyl)-2,4-dinitroanilino]ethyl methanesulfonate], for which the “potency as described in the literature” value in series [3] is recorded as “not sufficiently potent for a full biological evaluation to be conducted”.
